Laboratory results reported in ChEMBL document CHEMBL2311449, “Synthesis and evaluation of diphenylphosphinic amides and diphenylphosphine oxides as inhibitors of Kv1.5” (Bioorg Med Chem Lett, 2013).
Converted amounts (≈) assume the structure as drawn.

Tests used:
[1] = target: Intermediate conductance calcium-activated potassium channel protein 4 (Homo sapiens, UniProt O15554); experiment: Inhibition of IK channel (unknown origin)
Oryctolagus cuniculus [2] = experiment: Toxicity in New Zealand white rabbit assessed as CNS effect at 0.1 and 1 umol/kg/min; type: organism-based, Central nervous system; details: in vivo
[3] = target: Potassium voltage-gated channel subfamily A member 5 (Homo sapiens, UniProt P22460); experiment: Inhibition of human Kv1.5 channel expressed in CHO cells by high throughput planar patch clamp assay; type: cell-based
[4] = target: Voltage-gated inwardly rectifying potassium channel KCNH2 (Homo sapiens, UniProt Q12809)
[5] = Lipophilicity, log D of compound at pH 7.4; type: physicochemical; details: buffer
Oryctolagus cuniculus [6] = organism: Oryctolagus cuniculus; experiment: Toxicity in New Zealand white rabbit assessed as CNS effect at plasma concentration of 3 to 4 times 20% change in atrium effective refractory period; type: organism-based; details: in vivo
Oryctolagus cuniculus [7] = experiment: Increase of effective refractory period in New Zealand white rabbit assessed as maximum change in QT interval at 0.1 and 1 umol/kg/min for 15 mins infusions; type: functional
Plasma = experiment: Unbound steady state plasma concentration in New Zealand white rabbit assessed as concentration required to 20% change in atrium effective refractory period at 0.1 and 1 umol/kg/min for 15 mins infusions; type: ADME, cell-free, Oryctolagus cuniculus; details: 0.25 h
[8] = Oral bioavailability in rat; type: ADME, organism-based; details: in vivo
[9] = Clearance in rat; type: ADME, organism-based; details: in vivo
[10] = Solubility of the compound at pH 7.4; type: physicochemical; details: buffer
[11] = Intrinsic clearance in human liver microsomes; type: ADME, Microsome; details: read-out: CLH
[12] = Apparent permeability of the compound in human Caco2 cells; type: ADME, cell-based; details: Caco-2

Intermediate conductance calcium-activated potassium channel protein 4, sequence (O15554 whole entry): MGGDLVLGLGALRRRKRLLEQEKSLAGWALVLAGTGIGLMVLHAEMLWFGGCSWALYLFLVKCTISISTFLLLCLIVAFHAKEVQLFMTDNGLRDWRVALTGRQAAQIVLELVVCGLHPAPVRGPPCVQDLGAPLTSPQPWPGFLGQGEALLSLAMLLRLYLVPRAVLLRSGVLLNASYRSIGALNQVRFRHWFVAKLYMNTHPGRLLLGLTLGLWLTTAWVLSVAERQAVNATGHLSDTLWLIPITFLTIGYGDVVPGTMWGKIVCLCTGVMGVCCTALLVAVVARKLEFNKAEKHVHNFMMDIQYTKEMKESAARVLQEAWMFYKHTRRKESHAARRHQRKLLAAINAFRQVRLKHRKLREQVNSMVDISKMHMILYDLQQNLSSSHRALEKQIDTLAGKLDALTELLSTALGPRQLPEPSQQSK
Potassium voltage-gated channel subfamily A member 5, sequence (P22460 whole entry): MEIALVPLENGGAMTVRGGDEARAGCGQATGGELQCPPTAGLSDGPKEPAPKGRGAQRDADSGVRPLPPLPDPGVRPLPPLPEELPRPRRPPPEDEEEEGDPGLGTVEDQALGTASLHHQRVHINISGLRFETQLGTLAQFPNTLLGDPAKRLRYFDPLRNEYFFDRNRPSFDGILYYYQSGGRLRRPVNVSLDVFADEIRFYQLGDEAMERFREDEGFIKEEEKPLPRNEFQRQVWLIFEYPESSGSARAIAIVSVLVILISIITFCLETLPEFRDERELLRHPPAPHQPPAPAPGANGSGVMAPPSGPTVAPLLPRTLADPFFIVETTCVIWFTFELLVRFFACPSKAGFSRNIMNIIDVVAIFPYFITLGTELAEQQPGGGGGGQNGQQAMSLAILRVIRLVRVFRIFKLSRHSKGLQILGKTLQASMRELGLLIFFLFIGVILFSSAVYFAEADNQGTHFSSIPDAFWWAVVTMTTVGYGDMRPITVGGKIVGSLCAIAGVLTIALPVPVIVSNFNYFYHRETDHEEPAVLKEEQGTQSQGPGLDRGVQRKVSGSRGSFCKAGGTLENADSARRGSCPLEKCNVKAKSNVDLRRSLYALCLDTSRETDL
Voltage-gated inwardly rectifying potassium channel KCNH2, sequence (Q12809 whole entry): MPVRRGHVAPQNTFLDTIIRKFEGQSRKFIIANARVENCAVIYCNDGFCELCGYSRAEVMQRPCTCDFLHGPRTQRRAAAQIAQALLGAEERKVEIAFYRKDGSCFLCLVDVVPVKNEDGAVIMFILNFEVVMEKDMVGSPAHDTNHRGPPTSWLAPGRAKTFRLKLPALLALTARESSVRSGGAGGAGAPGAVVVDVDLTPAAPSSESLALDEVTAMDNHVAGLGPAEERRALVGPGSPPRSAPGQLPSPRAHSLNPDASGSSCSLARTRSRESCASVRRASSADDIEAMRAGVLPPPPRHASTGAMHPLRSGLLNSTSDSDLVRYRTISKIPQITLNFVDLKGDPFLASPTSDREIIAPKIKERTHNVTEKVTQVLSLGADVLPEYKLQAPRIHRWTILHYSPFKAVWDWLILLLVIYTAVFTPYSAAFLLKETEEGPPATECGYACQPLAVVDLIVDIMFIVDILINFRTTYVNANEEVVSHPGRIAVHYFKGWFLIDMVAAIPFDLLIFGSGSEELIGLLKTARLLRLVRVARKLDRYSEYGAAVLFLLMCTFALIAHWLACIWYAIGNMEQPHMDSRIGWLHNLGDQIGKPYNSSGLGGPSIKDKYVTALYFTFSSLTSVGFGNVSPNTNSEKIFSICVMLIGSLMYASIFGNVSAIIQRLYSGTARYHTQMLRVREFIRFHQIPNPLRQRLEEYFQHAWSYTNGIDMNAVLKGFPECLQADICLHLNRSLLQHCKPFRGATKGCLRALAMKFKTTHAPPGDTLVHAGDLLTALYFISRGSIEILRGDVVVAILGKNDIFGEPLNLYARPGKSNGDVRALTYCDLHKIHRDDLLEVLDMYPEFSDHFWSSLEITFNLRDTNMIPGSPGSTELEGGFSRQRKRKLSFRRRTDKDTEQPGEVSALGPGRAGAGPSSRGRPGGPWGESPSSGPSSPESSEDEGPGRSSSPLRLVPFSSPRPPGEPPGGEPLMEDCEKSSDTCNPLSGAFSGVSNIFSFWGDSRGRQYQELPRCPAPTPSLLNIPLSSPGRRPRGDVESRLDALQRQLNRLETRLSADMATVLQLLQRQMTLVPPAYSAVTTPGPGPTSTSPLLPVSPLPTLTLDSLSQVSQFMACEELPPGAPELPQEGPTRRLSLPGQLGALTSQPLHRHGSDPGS

SMILES | IC50 [1] [nM] | IC50 [3] [nM] | IC50 [4] [nM] | other results
N#Cc1cccc(-c2ncccc2CNP(=O)(c2ccccc2)c2ccccc2)c1 | 7700 | 540 |  | Activity (Oryctolagus cuniculus [2]): Toxic
O=P(c1ccccc1)(c1ccccc1)N(c1cccnc1)c1cccnc1 |  | 1600 |  | 
O=P(NCc1cccnc1-c1cccc(Cl)c1)(c1ccccc1)c1ccccc1 | 4900 | 330 |  | 
O=P(Nc1cccnc1)(c1ccccc1)c1ccccc1 |  | > 30000 | > 33000 | 
O=P(NCc1cccnc1-c1cccnc1)(c1ccccc1)c1ccccc1 | 33000 | 2700 |  | 
O=P(c1ccccc1)(c1ccccc1)C(c1cccnc1)c1cccnc1 | 1000 | 180 |  | 
O=P(Nc1cc(F)ccc1-n1cccn1)(c1ccccc1)c1ccccc1 | 7800 | 4100 | > 33000 | 
COc1ccc(-c2ncccc2NP(=O)(c2ccccc2)c2ccccc2)cc1 |  | 17000 | > 33000 | 
CC(C)[C@@H]1CC[C@@H](C)C[C@@H]1P(=O)(c1ccccc1)c1ccccc1 |  |  |  | logD [5]: 6
O=P(c1ccccc1)(c1ccccc1)C(c1ccccc1)c1cccnc1 (racemic) | 500 | 100 |  | 
CCCN(c1cccc(S(C)(=O)=O)c1)P(=O)(c1ccccc1)c1ccccc1 | > 33000 | 930 | > 33000 | Activity (Oryctolagus cuniculus [2]): Toxic
O=P(c1ccccc1)(c1ccccc1)C(c1cccnc1)N1CCCCC1 (racemic) | 1800 | 140 |  | 
O=P(c1ccccc1)(c1ccccc1)N(Cc1ccccn1)c1cccnc1 | 10000 | 530 | > 33000 | Activity (Oryctolagus cuniculus [2]): Toxic
CCCNC(c1cccnc1)P(=O)(c1ccccc1)c1ccccc1 (racemic) | 14000 | 750 |  | 
N#CCCCN(c1cccnc1)P(=O)(c1ccccc1)c1ccccc1 | 31000 | 1900 | > 33000 | 
O=P(c1ccccc1)(c1ccccc1)N(Cc1ccccn1)Cc1ccccn1 | > 33000 | 1300 | > 33000 | Activity (Oryctolagus cuniculus [2]): Toxic
O=P(NCc1cccnc1-c1cc(Cl)cc(Cl)c1)(c1ccccc1)c1ccccc1 | 13000 | 80 |  | 
COCCN(c1cccnc1)P(=O)(c1ccccc1)c1ccccc1 | > 33000 | 620 | > 33000 | 
c1ccc([C@H]([C@@H](c2ccccc2)N2CCCCC2)N2CCCCC2)cc1 |  | 1700 |  | 
CCCN(c1cncnc1)P(=O)(c1ccccc1)c1ccccc1 | > 33000 | 1000 |  | Activity (Oryctolagus cuniculus [6]): Toxic; Activity (Oryctolagus cuniculus [7]): <10%; Cp(f)ss (Plasma): 600 nM
CCCN(c1cccc(C#N)c1)P(=O)(c1ccccc1)c1ccccc1 | 2700 | 200 | > 33000 | 
O=P(NCc1ccccc1-c1cccnc1)(c1ccccc1)c1ccccc1 | > 33000 | 2300 | > 33000 | 
CCCN(c1cccnc1)P(=O)(c1ccccc1)c1ccccc1 | 14000 | 120 | > 33000 | bioavailability [8]: 55%; clearance [9]: 11 mL/min/kg; Activity (Oryctolagus cuniculus [6]): Toxic; solubility [10]: 91 µM (≈ 30.6 µg/mL); logD [5]: 2.6; microsomal CLint [11]: 158 µL/min/mg; Papp [12]: 30 ×10⁻⁶ cm/s; Activity (Oryctolagus cuniculus [7]): 23%; Cp(f)ss (Plasma): 800 nM
